Test: xn = mol fraction of the nth substance listed
Details: Gas, Burnett expansion method

FC(C(F)(F)F)C(F)(F)F [1,1,1,2,3,3,3-heptafluoropropane] + FCF
Details | mass density [kg/m3]
360 K, 221.36 kPa, x2 = 0.5155 | 8.234
360 K, 239.67 kPa, x2 = 0.2648 | 11.408
360 K, 243.21 kPa, x2 = 0.7809 | 6.433
360 K, 303.15 kPa, x2 = 0.5155 | 11.36
360 K, 327.36 kPa, x2 = 0.2648 | 15.74
360 K, 333.32 kPa, x2 = 0.7809 | 8.875
360 K, 414 kPa, x2 = 0.5155 | 15.673
360 K, 445.38 kPa, x2 = 0.2648 | 21.715
360 K, 455.62 kPa, x2 = 0.7809 | 12.244
360 K, 563.21 kPa, x2 = 0.5155 | 21.622
360 K, 602.72 kPa, x2 = 0.2648 | 29.96
360 K, 620.87 kPa, x2 = 0.7809 | 16.892
360 K, 761.94 kPa, x2 = 0.5155 | 29.83
360 K, 809.48 kPa, x2 = 0.2648 | 41.334
360 K, 842.09 kPa, x2 = 0.7809 | 23.305
360 K, 1023.1 kPa, x2 = 0.5155 | 41.153
360 K, 1075.4 kPa, x2 = 0.2648 | 57.027
360 K, 1134.1 kPa, x2 = 0.7809 | 32.152
360 K, 1359.1 kPa, x2 = 0.5155 | 56.775
360 K, 1407.1 kPa, x2 = 0.2648 | 78.678
360 K, 1513.7 kPa, x2 = 0.7809 | 44.316
360 K, 1778.5 kPa, x2 = 0.5155 | 78.326
360 K, 1801.2 kPa, x2 = 0.2648 | 108.549
360 K, 1995.5 kPa, x2 = 0.7809 | 61.139
360 K, 2234.4 kPa, x2 = 0.2648 | 149.76
360 K, 2279 kPa, x2 = 0.5155 | 108.059
360 K, 2584.7 kPa, x2 = 0.7809 | 84.349
360 K, 2647.8 kPa, x2 = 0.2648 | 206.618
360 K, 2834.8 kPa, x2 = 0.5155 | 149.078
370 K, 180 kPa, x2 = 0.2648 | 8.265
370 K, 227.73 kPa, x2 = 0.5155 | 8.23
370 K, 246.7 kPa, x2 = 0.2648 | 11.403
370 K, 250.16 kPa, x2 = 0.7809 | 6.429
370 K, 312.04 kPa, x2 = 0.5155 | 11.355
370 K, 337.19 kPa, x2 = 0.2648 | 15.732
370 K, 343.02 kPa, x2 = 0.7809 | 8.87
370 K, 426.48 kPa, x2 = 0.5155 | 15.665
370 K, 459.23 kPa, x2 = 0.2648 | 21.704
370 K, 469.2 kPa, x2 = 0.7809 | 12.238
370 K, 580.8 kPa, x2 = 0.5155 | 21.611
370 K, 622.4 kPa, x2 = 0.2648 | 29.945
370 K, 639.98 kPa, x2 = 0.7809 | 16.884
370 K, 786.9 kPa, x2 = 0.5155 | 29.815
370 K, 837.7 kPa, x2 = 0.2648 | 41.314
370 K, 869.16 kPa, x2 = 0.7809 | 23.293
370 K, 1058.9 kPa, x2 = 0.5155 | 41.133
370 K, 1116.3 kPa, x2 = 0.2648 | 56.999
370 K, 1172.8 kPa, x2 = 0.7809 | 32.136
370 K, 1411 kPa, x2 = 0.5155 | 56.746
370 K, 1467.3 kPa, x2 = 0.2648 | 78.639
370 K, 1569.4 kPa, x2 = 0.7809 | 44.294
370 K, 1854.7 kPa, x2 = 0.5155 | 78.287
370 K, 1891.2 kPa, x2 = 0.2648 | 108.495
370 K, 2076.9 kPa, x2 = 0.7809 | 61.109
370 K, 2371.1 kPa, x2 = 0.2648 | 149.686
370 K, 2392.6 kPa, x2 = 0.5155 | 108.005
370 K, 2705.2 kPa, x2 = 0.7809 | 84.308
370 K, 2859.2 kPa, x2 = 0.2648 | 206.516
370 K, 3006.5 kPa, x2 = 0.5155 | 149.004
390 K, 190.02 kPa, x2 = 0.2648 | 8.257
390 K, 240.4 kPa, x2 = 0.5155 | 8.222
390 K, 260.65 kPa, x2 = 0.2648 | 11.392
390 K, 264.02 kPa, x2 = 0.7809 | 6.423
